Test results as given in patent US6479287B1, “Method for transformation of cotton and organogenic regeneration” (Mississippi State University, priority 2000, dated 2002).

Test system: cotton shoot initiation (cultivar Deltapine 50 hypocotyl explants)
Experiment: Dose response study: effect of aminoglycosides on cotton shoot initiation from hypocotyl explants on medium GA
Format: in vivo
Conditions: incorporated in medium GA, results after 1 month, kanamycin tested at 0-200 mg/l, geneticin at 0-20 mg/l
Description: Hypocotyl sections were placed horizontally on shoot initiation medium (GA). Explants were maintained for 6 weeks on this medium. Shoot primordia were visible on the acropetal ends of hypocotyl sections after 2 weeks. After 6 weeks, leaves were clearly visible. Shoot initiation has been observed in 7 commercial cultivars (Deltapine 50, Stoneville 474, Deltapine 5111, Tx 121, Suregrow 125, Fibermax 819, and Paymaster 1215) and 3 breeding lines, and the response ranged from 20-73% (percentage explants capable of initiating shoots per cultivar).
GA: semi-solid GMS plus an auxin like NAA (0.1-3.0 mg/l), a cytokinin like TDZ, or BA plus kinetin (0.1-2.5 mg/l) and 1-50 mg/l silver nitrate
The effect of the aminoglycosides kanamycin and geneticin on cotton shoot initiation were investigated. Kanamycin, at concentrations of 0.0, 50, 100, 150 and 200 mg/I, and geneticin at 0.0, 5.0, 10, 15 and 20 mg/l, were incorporated in medium GA. The experiment consisted of 3 replicate plates/treatment and 4 explants/replicate plates using the cultivar Deltapine 50. […] A geneticin concentration up to 20 mg/l was not inhibitory to shoot initiation.

| Structure (SMILES) | concentration inhibitory to shoot initiation [mg/L] |
| --- | --- |
| NC[C@H]1O[C@H](O[C@H]2[C@H](O)[C@@H](O[C@H]3O[C@H](CO)[C@@H](O)[C@H](N)[C@H]3O)[C@H](N)C[C@@H]2N)[C@H](O)[C@@H](O)[C@@H]1O [kanamycin] | 50 |
| CN[C@@H]1[C@@H](O)[C@@H](O[C@@H]2[C@@H](O)[C@H](O[C@H]3O[C@H]([C@@H](C)O)[C@@H](O)[C@H](O)[C@H]3N)[C@@H](N)C[C@H]2N)OC[C@]1(C)O [geneticin] | > 20 |
